We go through five compounds from US20160137610A1, “Compounds that Modulate EGFR Activity and Methods for Treating or Preventing Conditions Therewith” (Gatekeeper Pharmaceuticals, Inc., priority 2010, published 2016).

SMILES strings stand for the structures.

Type in all cases: cell-based
For assay [1], the target named is Ba/F3 cells EGFR Del 19/T790M (Homo sapiens, UniProt P00533, DEL746-750/T790M, cells depend on it). Description: Cell proliferation/growth MTS assay in EGFR mutant Ba/F3 cells. To be noted: 72 hours, read-out: IC50 (nM) in Ba/F3 Cells, EGFR Del 19/T790M. From the text: (§1) The EGFR and iERBB2 mutant Ba/F3 cells and the NIH-3T3 cells have been previously characterized (Engelman, J. A. et al. Cancer Res 67, 11924-32 (2007); Yuza, Y. et al. Cancer Biol Ther 6 (2007)). The EGFR C797S and the ERBB2 T798I mutations are introduced using site directed mutagenesis using the Quick Change Site-Directed Mutagenesis kit (Stratagene; La Jolla, Calif.) according to the manufacturer's instructions (Mukohara, T. et al. J Natl Cancer Inst 97, 1185-94 (2005)). The oligonucleotide sequences are available upon request. All constructs are confirmed by DNA sequencing. The constructs are shuttled into the retroviral vector JP1540 using the BD Creator™ System (BD Biosciences). Ba/F3 of NIH-3T3 cells are infected with retrovirus according to standard protocols, as described previously (Engelman, J. A. et al. Proc Natl Acad Sci USA 102, 3788-93 (2005); Zhao, J. J. et al. Cancer Cell 3, 483-95 (2003)). Stable populations are obtained by selection in puromycin (2 μg/ml).
(§2) Growth and inhibition of growth is assessed by MTS assay. This assay, a colorimetric method for determining the number of viable cells, is based on the bioreduction of 3-(4,5-dimethylthiazol-2-yl)-5-(3-carboxymethoxyphenyl)-2-(4-sulfophenyl)-2H-tetrazolium (MTS) by cells to a formazan product that is soluble in cell culture medium, can be detected spectrophotometrically and was performed according to previously established methods (Mukohara, T. et al. J Natl Cancer Inst 97, 1185-94 (2005); Paez, J. G. et al. Science 304, 1497 500 (2004); Engelman, J. A. et al. J Clin Invest 116, 2695-2706 (2006). NSCLC or Ba/F3 cells are exposed to treatment for 72 hours and the number of cells used per experiment determined empirically and has been previously established. All experimental points are set up in six to twelve wells and all experiments are repeated at least three times. […] The curves are fitted using a non-linear regression model with a sigmoidal dose response.
(§3) Activity of various compounds of the invention was determined in vitro in EGFR mutant Ba/F3 cells according to the procedures set forth in Example 1.

Assay [2] deals with Ba/F3 cells EGFR L858R/T790M (Homo sapiens, UniProt P00533, T790M/L858R, cells depend on it). Described as above. To be noted: 72 hours, read-out: IC50 (nM) in Ba/F3 Cells, EGFR L858R/T790M.
Excerpt: as §1, §2, §3

A further assay deals with A549 (KRAS G12). Description: Cell proliferation/growth MTS assay in NSCLC cell lines. The conditions noted are these: Homo sapiens, 72 hours.
Assay [3] concerns PC9 GR (EGFR Del 19/T790M). The description is as above. The conditions noted are these: 72 hours. From the text:
(§4) The EGFR mutant NSCLC cell lines HCC827 (del E746_A750), H3255 (L858R), HCC827 GR (del E746_A750/MET amplified), H1975 (L858R/T790M) and PC9 (del E746_A750) have been previously characterized (Amann., J. et al. Cancer Res 65, 226-35 (2005); Engelman, J. A. et al. Science 316, 1039-43 (2007); Ono, M. et al. Mol Cancer Ther 3, 465-72 (2004); Ogino, A. et al. Cancer Res 67, 7807-14 (2007)). The PC9 GR (del E746_A750/T790M) cells are generated and verified to contain del E746_A750 in cis with T790M. The ERBB2 amplified (Calu-3 and H1819) and mutant (H1781) are obtained from ATCC. […]
(§5) Growth and inhibition of growth is assessed by MTS assay. This assay, a colorimetric method for determining the number of viable cells, is based on the bioreduction of 3-(4,5-dimethylthiazol-2-yl)-5-(3-carboxymethoxyphenyl)-2-(4-sulfophenyl)-2H-tetrazolium (MTS) by cells to a formazan product that is soluble in cell culture medium, can be detected spectrophotometrically and was performed according to previously established methods (Mukohara, T. et al. J Natl Cancer Inst 97, 1185-94 (2005); Paez, J. G. et al. Science 304, 1497 500 (2004); Engelman, J. A. et al. J Clin Invest 116, 2695-2706 (2006). NSCLC or Ba/F3 cells are exposed to treatment for 72 hours and the number of cells used per experiment determined empirically and has been previously established. […]

A further assay deals with PC9 (EGFR Del 19). The description is as above. To be noted: 72 hours.
Excerpt: as §4, §5

The next assay has as its target Ba/F3 cells EGFR vIII (Homo sapiens, UniProt P00533, DELINS30-297G, cells depend on it). As to the kind of experiment: Cell proliferation/growth MTS assay in EGFR mutant Ba/F3 cells. The conditions noted are these: 72 hours, read-out: IC50 (nM) in Ba/F3 Cells, EGFR vIII.
Excerpt: as §1, §2, §3

Sequence of Ba/F3 cells EGFR Del 19/T790M (P00533 with tags, fused parts or gaps DEL746-750/T790M): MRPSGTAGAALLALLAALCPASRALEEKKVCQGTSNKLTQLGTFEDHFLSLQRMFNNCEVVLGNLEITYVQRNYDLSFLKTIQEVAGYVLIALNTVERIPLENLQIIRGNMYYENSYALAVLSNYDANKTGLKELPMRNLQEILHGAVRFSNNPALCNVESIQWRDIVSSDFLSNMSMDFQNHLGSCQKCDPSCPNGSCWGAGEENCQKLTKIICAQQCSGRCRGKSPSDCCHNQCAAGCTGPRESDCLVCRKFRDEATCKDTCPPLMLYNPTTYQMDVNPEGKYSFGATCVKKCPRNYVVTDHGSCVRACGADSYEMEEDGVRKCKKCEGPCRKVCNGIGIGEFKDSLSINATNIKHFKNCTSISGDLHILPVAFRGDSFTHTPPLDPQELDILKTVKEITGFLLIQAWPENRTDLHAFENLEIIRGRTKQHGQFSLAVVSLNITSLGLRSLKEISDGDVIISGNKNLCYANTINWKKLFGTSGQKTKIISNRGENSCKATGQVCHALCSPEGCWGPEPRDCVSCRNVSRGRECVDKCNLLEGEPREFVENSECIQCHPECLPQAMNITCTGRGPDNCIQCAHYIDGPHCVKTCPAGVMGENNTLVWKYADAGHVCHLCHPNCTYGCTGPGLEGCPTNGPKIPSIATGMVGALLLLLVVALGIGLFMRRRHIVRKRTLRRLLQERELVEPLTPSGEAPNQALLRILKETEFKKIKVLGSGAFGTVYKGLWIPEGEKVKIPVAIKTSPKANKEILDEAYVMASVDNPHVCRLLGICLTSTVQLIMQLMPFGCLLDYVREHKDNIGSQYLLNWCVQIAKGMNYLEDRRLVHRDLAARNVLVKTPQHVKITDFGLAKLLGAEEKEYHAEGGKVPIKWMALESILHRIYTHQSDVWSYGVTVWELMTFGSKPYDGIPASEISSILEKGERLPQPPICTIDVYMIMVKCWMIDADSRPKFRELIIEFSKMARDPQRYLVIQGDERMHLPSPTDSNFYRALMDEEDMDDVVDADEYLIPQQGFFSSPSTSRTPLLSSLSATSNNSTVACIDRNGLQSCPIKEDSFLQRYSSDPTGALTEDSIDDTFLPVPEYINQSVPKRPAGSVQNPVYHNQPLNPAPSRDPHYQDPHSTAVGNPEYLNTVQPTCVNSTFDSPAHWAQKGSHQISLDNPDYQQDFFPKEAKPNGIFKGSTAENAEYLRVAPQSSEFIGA
Sequence of Ba/F3 cells EGFR L858R/T790M (P00533 whole entry T790M/L858R): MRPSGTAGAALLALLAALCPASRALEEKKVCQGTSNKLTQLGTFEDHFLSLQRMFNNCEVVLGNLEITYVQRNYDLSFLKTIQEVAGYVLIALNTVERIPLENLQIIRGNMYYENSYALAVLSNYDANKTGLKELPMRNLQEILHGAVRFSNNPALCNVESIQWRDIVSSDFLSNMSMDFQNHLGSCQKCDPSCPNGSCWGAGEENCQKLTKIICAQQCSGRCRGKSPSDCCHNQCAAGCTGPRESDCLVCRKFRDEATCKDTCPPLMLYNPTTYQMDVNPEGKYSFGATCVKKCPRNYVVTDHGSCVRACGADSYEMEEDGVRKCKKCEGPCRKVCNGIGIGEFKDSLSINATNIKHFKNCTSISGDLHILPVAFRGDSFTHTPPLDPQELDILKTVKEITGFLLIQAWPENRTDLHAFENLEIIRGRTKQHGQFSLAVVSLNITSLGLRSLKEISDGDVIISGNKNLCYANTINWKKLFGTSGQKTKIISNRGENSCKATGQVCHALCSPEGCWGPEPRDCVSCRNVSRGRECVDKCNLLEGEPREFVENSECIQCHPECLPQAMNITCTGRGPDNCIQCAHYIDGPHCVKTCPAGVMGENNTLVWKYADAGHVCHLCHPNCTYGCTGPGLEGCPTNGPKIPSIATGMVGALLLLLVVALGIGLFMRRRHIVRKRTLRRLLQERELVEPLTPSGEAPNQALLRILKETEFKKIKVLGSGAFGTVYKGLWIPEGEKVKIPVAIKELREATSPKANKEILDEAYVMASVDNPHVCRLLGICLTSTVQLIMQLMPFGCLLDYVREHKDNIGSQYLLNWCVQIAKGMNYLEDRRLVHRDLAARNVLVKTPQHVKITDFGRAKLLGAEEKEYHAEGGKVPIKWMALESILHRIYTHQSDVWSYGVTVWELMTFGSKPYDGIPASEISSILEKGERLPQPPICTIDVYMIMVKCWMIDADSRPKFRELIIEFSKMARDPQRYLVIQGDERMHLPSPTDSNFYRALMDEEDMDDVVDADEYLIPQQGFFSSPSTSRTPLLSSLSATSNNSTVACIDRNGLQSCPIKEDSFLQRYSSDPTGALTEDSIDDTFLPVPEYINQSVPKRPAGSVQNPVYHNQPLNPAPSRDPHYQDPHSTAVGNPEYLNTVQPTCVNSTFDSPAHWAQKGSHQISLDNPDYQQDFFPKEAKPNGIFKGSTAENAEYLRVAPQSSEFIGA
Sequence of Ba/F3 cells EGFR vIII (P00533 with tags, fused parts or gaps DELINS30-297G): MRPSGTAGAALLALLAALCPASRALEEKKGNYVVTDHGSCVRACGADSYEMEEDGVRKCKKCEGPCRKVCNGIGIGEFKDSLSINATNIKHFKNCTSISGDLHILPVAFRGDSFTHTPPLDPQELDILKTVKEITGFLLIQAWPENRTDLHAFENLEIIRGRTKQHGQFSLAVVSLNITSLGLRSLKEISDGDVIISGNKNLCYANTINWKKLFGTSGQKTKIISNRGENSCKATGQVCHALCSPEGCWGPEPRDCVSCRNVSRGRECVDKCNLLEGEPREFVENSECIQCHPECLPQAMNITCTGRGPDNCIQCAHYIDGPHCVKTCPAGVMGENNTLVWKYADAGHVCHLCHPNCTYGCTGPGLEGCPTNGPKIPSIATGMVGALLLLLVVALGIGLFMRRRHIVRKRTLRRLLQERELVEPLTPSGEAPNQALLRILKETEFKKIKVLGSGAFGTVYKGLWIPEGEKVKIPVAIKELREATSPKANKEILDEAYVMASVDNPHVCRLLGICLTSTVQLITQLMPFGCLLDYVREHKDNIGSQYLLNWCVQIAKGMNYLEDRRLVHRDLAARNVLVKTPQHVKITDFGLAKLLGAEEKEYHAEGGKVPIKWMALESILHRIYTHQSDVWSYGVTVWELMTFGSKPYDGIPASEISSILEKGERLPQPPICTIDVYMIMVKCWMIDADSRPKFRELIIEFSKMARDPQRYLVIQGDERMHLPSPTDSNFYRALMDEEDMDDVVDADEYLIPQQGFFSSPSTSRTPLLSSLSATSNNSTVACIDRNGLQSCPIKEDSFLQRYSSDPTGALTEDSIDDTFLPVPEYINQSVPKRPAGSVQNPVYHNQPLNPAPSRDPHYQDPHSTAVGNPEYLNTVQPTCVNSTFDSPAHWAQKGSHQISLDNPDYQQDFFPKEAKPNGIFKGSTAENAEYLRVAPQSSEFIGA

In the case of `C=CC(=O)Nc1cccc(Nc2ncc(Cl)c(Nc3ccccc3S(=O)(=O)C(C)C)n2)c1` [Compound XIII-4, N-(3-((5-chloro-4-((2-(isopropylsulfonyl)phenyl)amino)pyrimidin-2-yl)amino)phenyl)acrylamide], the GI50 in assay [1] came out at 7 nM; in assay [2] it was 17 nM.

Consider `C=CC(=O)Nc1cccc(CNc2ncc(Cl)c(Nc3ccccc3S(=O)(=O)C(C)C)n2)c1` [Compound XIII-3, N-(3-(((5-chloro-4-((2-(isopropylsulfonyl)phenyl)amino)pyrimidin-2-yl)amino)methyl)phenyl)acrylamide], for which the GI50 in assay [1] was determined as 670 nM; in assay [2], 721 nM.

With `C=CC(=O)Nc1ccc(OC)c(Nc2ncc(Cl)c(Nc3ccccc3C(=O)NC)n2)c1` [Compound XIII-2, 2-((2-((5-acrylamido-2-methoxyphenyl)amino)-5-chloropyrimidin-4-yl)amino)-N-methylbenzamide], the IC50 in the assay with A549 (KRAS G12) was over 3300 nM; in assay [3] it was 104 nM; in the assay with PC9 (EGFR Del 19), 118 nM. The values for the GI50 (in assay [1]; at Ba/F3 cells EGFR vIII; in assay [2]) were 56 nM, 570 nM and 65 nM, respectively.

For the compound `C=CC(=O)Nc1cccc(Nc2ncc(Cl)c(Nc3ccccc3S(=O)(=O)NC)n2)c1` [Compound XIII-5, N-(3-((5-chloro-4-((2-(N-methylsulfamoyl)phenyl)amino)pyrimidin-2-yl)amino)phenyl)acrylamide], the GI50 in assay [1] was 11 nM; in assay [2], 9 nM.

As for `C=CC(=O)Nc1cccc(Nc2ncc(Cl)c(Nc3ccccc3C(=O)NC)n2)c1` [Compound XIII-1, 2-((2-((3-acrylamidophenyl)amino)-5-chloropyrimidin-4-yl)amino)-N-methylbenzamide], in the assay on A549 (KRAS G12), the IC50 was determined as 814 nM. Moreover, the GI50 in assay [1] came to 3 nM; at Ba/F3 cells EGFR vIII, 3 nM; in assay [2], 6 nM.
